Marks after values point to notes of the source that are not given here.
Tests used:
[1] = tested on: indomethacin induced small intestine mucosal damage; test: Indomethacin induced small intestine mucosal damage; format: in vivo, rats
Procedure: (§1) The experiment of animal was performed as previously described. Mucosal damage in gastrointestinal tract was induced ethanol or indomethacin administration. In ethanol-treated animals, after 24 hours of fasting, ethanol was given orally (70%, v/v, 10 ml/kg) by means of an oral gastric. Mucosal damage was assessed by measurement of areas with hemorrhagic lesion. In the indomethacin ulcer model, rats were refed for 1 hour after 24 hours of fasting. Thirty minutes later, indomethacin (15 mg/kg) was administered subcutaneously and rats were killed 24 hours later. Mucosal lesions were again measured along the greatest diameter. […] SCS administration was repeated again 6 hours after indomethacin injection.

[2] = tested on: complement; test: Effect of SCS on complement; format: in vivo, mice
[3] = tested on: mice; test: Acute toxicity in mice; format: in vivo
From the text: a. Route of Administration: intravenous and intraperiotoneal injection
b. Route of administration: the oral route

[4] = tested on: Cytochrome P-450; conditions: rat, in vivo
[5] = tested on: ethanol-induced gastric mucosal damage; test: Ethanol-induced gastric mucosal damage; format: in vivo, rats
Procedure: as §1

[6] = tested on: Gastric cancer cells; test: Effect of SCS on p^53 mutations of cancer cells (PCR-SSCP); format: cell-based; conditions: Gastric cancer cells treated by SCS
[7] = tested on: rats; test: Subacute toxicity, 30 days; format: in vivo
[8] = tested on: NADPH-cytochrome Creductase; test: Hepatic microsomal monooxygenases: NADPH-cytochrome C reductase; format: in vivo; conditions: rat liver microsomes, treatment group
[9] = tested on: ATP; test: ATP concentration with TET; format: biochemical; conditions: TET 5 μl/L + SCS (100 μmol/L)
Procedure: In present study, the effect of SCS on ATP and oxygen consumption was examined. The experiments of animal and livers were performed as previously described.

[10] = tested on: GRD; test: Hepatic GRD activity in CCl4-treated mice; format: in vivo
Procedure: (§2) Female Balb/c mice (22-24 g) were maintained at 20° C. and a 12 hours light/dark cycle. The food and water allowed adliboti. Mice were randomly assigned to groups of 20 individuals. Twenty-four hours after the last dosing, animals were administered an oral dose of CCl4 (1%, v/v, in olive oil) at 1.0 mmol/kg. In treatment group, mice were treated intragastrically with SCS at daily dose of 50 mg/kg for 4 days. Control animals were given the vehicle (i.e. olive oil, 1 mL/kg). Twenty-four hours after intoxication, heparinized blood samples were drawn from ether-anesthetized mice by cardiac puncture, and the animals were killed by cardiac excision thereafter.
The rats were starved overnight before decapitation. The livers were perfused in situ with ice-cold 1.15% KCl solution. Tissue homogenate was prepared by homogenizing 1 g of hepatic tissue sample in 10 mL ice-cold homogenizing buffer with two 10-secbursts of atissue disintegrator at 135,000 rpm. Hepatic mitochondrial fraction was prepared by differential centrifugation in isotonic buffer ([…], 0.1 mM EDTA, 5 mM Tris, pH 7.4).
The experiments of animal and livers were performed as previously described. Glutathione (GSH) level was determined by an HPLC method. In the present study, the effect of SCS on GHS and GRD were examined.

[11] = tested on: Aflatoxin B1 induced liver cancer; design: species or system rats; conditions: rat, in vivo
[12] = tested on: S-180; test: DNA synthesis of cancer cells ([^3H]TdR incorporation), S-180; format: in vivo, rats
Procedure: (§3) The method of animal and liver was described previously. Ascitric hepatoma, S180-ν, the transplantable 3924 used. After treatment with SCS (100 mg/kg), rats were injected with [^3H]-TdR (10 μc/μmole). Two hours after injection the animals were decapitated and examined. Livers and tumors were rapidly removed and blotted on filter paper. Tumors were carefully dissected free of necrotic, hemorrhagic, and nontumorous material. Tissues were minced with sharp scissors and 2 gm. DNA was prepared from the tissues. The radioactivity of the DNA was determined by liquid scintillation counting.
(§4) The incorporation of thymidine into DNA ws expressed as cpm/mg of DNA or cpm/gm of tissue.

[13] = tested on: bovine aortic smooth muscle cell modified LDL; test: Cell-modified LDL oxidation (MDA); format: cell-based; conditions: LDL + 100 μg SCS/ml, 24 hours, 37° C.
[14] = tested on: Serum alamine aminotransferase (ALT); test: Serum ALT activity in CCl4-intoxicated mice; format: in vivo
Procedure: as §2
Animal section described as previously. Plasma was obtained by centrifugation. The whole blood at 2000×g at 4° C. Serum alamine aminotransferase (ALT) activity was determined by assay kit from Sigma Chemical Co.

[15] = tested on: 3924A; test: DNA synthesis of cancer cells ([^3H]TdR incorporation), 3924A; format: in vivo, rats
Procedure: as §3, §4

[16] = tested on: c-myc RNA; test: Inhibition of oncogene expression in ML-1 cells (northern blot), c-myc; format: cell-based, Human
Procedure: Human myeloblastic leukemic cells (ML-1) were maintained in suspension culture in RPMI 1640 medium supplemented with 7.5% heat-inactivated FBS. Cells growth and viability were assayed by hemocytometer using trypan-blue dye exclusion.
RNA was isolated by the CsCl gradient modification. RNA pellets were washed twice by reprecipitation in ethanol and quantitated by absorbency at […]. RNA analyzed by electrophoresis of 15 μg of RNA through 1.2% agarose formaldehyde gels followed by northern blot transfer to nitrocellulose.
Single-standard uniformly labeled DNA probes were prepared. Probe of c-myc was a 1.7 Kb cla-Eco RI restriction fragment containing the 3′exon region of human c-myc and probe of c-myb was 1.0 Kb myb-specific Bam HI fragment. Probes for n-ras contained DNA fragments using a modification of the PCR technique. Probes for myb, myc and n-ras were isolated. The isolated fragments were labeled to high specific activity with [α^32P]-dCTP (3000 ci/mmol).
Prehybridization of the filter was performed. The hybridization mixer contained 50,000 cpm of probe. The probes were hybridized at 58° C. in 15 mM NaCl, […] sodium citrate for 3 hours. After hybridization, they were exposed to XAR-5 film. Oncogene expression was quantitated by densitometer scanning of the autoradiography.

[17] = intragastric route, 500 mg/kg daily, 30 consecutive days
[18] = rats, 500 mg/kg daily injected, 30 days

## COc1cc2c(c(OC)c1OC)-c1c(cc(OC)c(OC)c1OC)C[C@](C)(O)[C@@H](C)C2 [SCS, Schisandrin]
[1]; SCS 10 mg/kg
  Lesion area (mm^2) Small intestine: 350 ± 38* mm^2
[1]; SCS 25 mg/kg
  Lesion area (mm^2) Small intestine: 321 ± 33** mm^2
[1]; SCS 50 mg/kg
  Lesion area (mm^2) Small intestine: 295 ± 30** mm^2
[2]; treatment group
  C.P.M.: 480 ± 51
[2]; treatment versus control
  CPM of T/C: 194.3%
[3]; intragastric administration
  LD50: 5200 mg/kg
[3]; intraperitoneal injection
  LD50: 1250 mg/kg
[3]; intravenous
  LD50 intravenous versus dose used in clinical trials for human being: > 100 times
[3]; intravenous injection
  LD50: 720 mg/kg
[4]
  Cytochrome P-450: 2.80 ± 0.30 nmol/mg protein
[5]; SCS 10 mg/kg
  Lesion area (mm^2) gastric antrum: 2.5 ± 0.35* mm^2
[5]; SCS 25 mg/kg
  Lesion area (mm^2) gastric antrum: 2.0 ± 0.23** mm^2
[5]; SCS 50 mg/kg
  Lesion area (mm^2) gastric antrum: 1.7 ± 0.20** mm^2
[6]
  Frequency of p^53 mutations (%): 10%
[7]; [17]
  Behavior of the animal: remained normal
  Liver and kidney function, histological picture of important organs: no abnormalities
[7]; [18]
  Consumption of water, food and body weights versus control: did not show any differences
  Depressive, excitatory or sleepiness symptoms: no depressive, excitatory or sleepiness symptoms
  Microscopic inspection of stomach, liver, spleen and kidneys and their relative weights: no alteration
[8]
  NADPH-cytochrome Creductase: 202.5 ± 22 nmol/mg protein
[9]
  ATP: 35.8 ± 4.0* 100 μmol/L
[10]; CCl4 + SCS
  GRD: 50.6 ± 6.0 mU/mg protein
[10]; treatment versus CCl4 control
  GRD activity T/C: 347%
[10]; treatment versus normal group
  GRD activity T/N: 145%
[11]
  % of iron-excluding area in liver section: 2.2 ± 0.2 %
  Inhibition %: 87.8%
[12]; S-180 T versus C
  Tissue inhibition rate (%): 43.2%
[12]; S-180 T, SCS 100 mg/kg
  [^3H]TdR into DNA × 10^−3 cm/mg: 39.8 ± 5.2 × 10^−3 cm/mg
[13]
  MDA (nmol/mg protein, x ± s): 2.80 ± 0.29 nmol/mg protein
[14]; CCl4 + SCS, serum, mice, SCS 50 mg/kg intragastrically daily for 4 days
  ALT (X ± S): 68.8 ± 7.0 U L^−1
[14]; CCl4 mice, versus control
  CCl4 toxicity decreased by SCS (ALT): 87.9%
[15]; 3924A t versus C
  Tissue inhibition rate (%): 52.6%
[15]; 3924A t, SCS 100 mg/kg
  [^3H]TdR into DNA × 10^−3 cm/mg: 38.7 ± 4.8 × 10^−3 cm/mg
[16]; SCS concentration 10 ng/ml
  Inhibition (%) c-myc RNA: 70.5 ± 8.5%
[16]; SCS concentration 50 ng/ml
  Inhibition (%) c-myc RNA: 70.8 ± 8.9%

From patent publication US6605305B2, “Plant drug for treatment of liver disease” (priority 2001, dated 2003)
